According to US8063008B2, “Enzymatic production of peracids using perhydrolytic enzymes” (E. I. du Pont de Nemours and Company, priority 2005, dated 2011):
In brackets after ≈: the same amount, converted by molar mass. Several values for one entry are separate records, joined by “and”; a condition that tells them apart may be missing. Equal values may be shown once.

Columns and labels:
[1] = system: E. coli ATCC 11229; experiment: Determination of Minimum Biocidal Concentration (MBC), XTT reduction inhibition (Example 21); assay type: cell-based; conditions: for Minimum Biocidal Concentration (MBC): E. coli ATCC 11229, 1.35×10^6 CFU/mL, 10 minutes at room temperature, XTT, six-log kill; for replicate OD (450 nm): replicates 1-8
Description: The method described by J. Gabrielson, et al. (J. Microbiol. Methods 50: 63-73 (2002)) was employed for determination of the Minimum Biocidal Concentration (MBC) of peracids, or for determination of the MBC of hydrogen peroxide and enzyme substrates. The assay method is based on XTT reduction inhibition, where XTT ((2,3-bis[2-methoxy-4-nitro-5-sulfophenyl]-5-[(phenylamino)carbonyl]-2H-tetrazolium, inner salt, monosodium salt) is a redox dye that indicates microbial respiratory activity by a change in optical density (OD) measured at 490 nm or 450 nm. However, there are a variety of other methods available for testing the activity of disinfectants and antiseptics including, but not limited to viable plate counts, direct microscopic counts, dry weight, turbidity measurements, absorbance, and bioluminescence (see, for example Brock, Semour S., Disinfection, Sterilization, and Preservation, 5th edition, Lippincott Williams & Wilkins, Philadelphia, Pa., USA; 2001).
The filtered enzyme-generated product mixture was diluted 1:5 with sterile water, and the resulting solution was further diluted with sterile water in four 1:1 serial dilutions to obtain the concentrations of PAA and hydrogen peroxide listed in Table 22.
The 1:5 dilution and four serial dilutions were evaluated for biocidal activity by mixing 0.100 mL of the PAA-containing solution with 0.100 mL of an inoculum containing 2.7×10^6 CFU/mL of E. coli ATCC 11229 (American Type Culture Collection, Manassas, Va.) in Millers LB broth diluted with Butterfield Buffer; eight replicates of each mixture were contained in individual wells of a sterile 96-well microtiter plate. After the resulting cell suspensions were allowed to stand for 10 minutes at room temperature, they were tested for viability using the growth indicator XTT (2,3-bis[2-methoxy-4-nitro-5-sulfophenyl]-5-[(phenylamino)carbonyl]-2H-tetrazolium, inner salt, monosodium salt; CAS RN 111072-31-2) according to the method of Gabrielson et al. (J. Microbiol. Methods, 50:63-73 (2002)).
Separately, the cell inoculum was treated with sterile solutions of triacetin (Table 24) or hydrogen peroxide in 50 mM phosphate buffer (pH 6.5) (Table 25) at the concentrations present in each of the biocide dilutions in Table 23 to determine the MBC for these components of the biocide solution.

[2] = Protease-catalyzed perhydrolysis of diacetamide at pH 4.0 (Example 6); assay type: biochemical; conditions: pH 4.0, 500 mM H2O2, 1 mg protease
Procedure: (§1) Into a 4-mL glass vial with stir bar was added 1 mg protease (Table 6) in 0.050 mL of 50 mM sodium acetate/acetic acid buffer (pH 4.0), 0.900 mL of an aqueous mixture containing either a) acetamide (278 mM) in 50 mM sodium acetate/acetic acid buffer (pH 4.0) or b) diacetamide (278 mM) in 50 mM sodium acetate/acetic acid buffer (pH 4.0), and 0.052 mL 30% hydrogen peroxide (500 mM final concentration). […] A portion of the filtered reaction samples was diluted 1:10 with dd water and analyzed for hydrogen peroxide, and the remaining portion of the sample was directly analyzed for peracid using the HPLC assay method (Table 7).

[3] = Protease-catalyzed perhydrolysis of triacetin at pH 4.0 (Example 7); assay type: biochemical; conditions: pH 4.0, 500 mM H2O2, 1 mg protease
Procedure: as §1, with “triacetin” for “either a) acetamide (278 mM) in 50 mM sodium acetate/acetic acid buffer (pH 4.0) or b) diacetamide”, “8).” for “7).”

[4] = Protease-catalyzed perhydrolysis of acetamide at pH 4.0 (Example 6); assay type: biochemical; conditions: pH 4.0, 500 mM H2O2, 1 mg protease
Procedure: as §1

[5] = Protease-catalyzed perhydrolysis of diacetamide at pH 6.5 (Example 9); assay type: biochemical; conditions: pH 6.5, 500 mM H2O2, 1 mg protease
Procedure: as §1, with “potassium phosphate” for “sodium acetate/acetic acid”, “6.5),” for “4.0),”, “6.5)” for “4.0)”, “10).” for “7).”

[6] = Protease-catalyzed perhydrolysis of acetamide at pH 6.5 (Example 9); assay type: biochemical; conditions: pH 6.5, 500 mM H2O2, 1 mg protease
Procedure: as §1, with “potassium phosphate” for “sodium acetate/acetic acid”, “6.5),” for “4.0),”, “6.5)” for “4.0)”, “10).” for “7).”

[7] = Protease-catalyzed perhydrolysis of triacetin at pH 6.5 (Example 8); assay type: biochemical; conditions: pH 6.5, 500 mM H2O2, 1 mg protease
Procedure: The analytical procedure described by U. Karst et al. (Anal. Chem., 69 (17):3623-3627 (1997)) was employed, as described herein, for analysis of product mixtures containing peracid and hydrogen peroxide. Briefly, the concentration of peracetic acid (PAA) in analyzed samples ranged from 0.025 mM-10 mM, and the concentration of H2O2 ranged from 0.075 mM-3 mM. Reaction mixtures containing peracid and/or hydrogen peroxide were, if necessary prior to analysis, diluted to produce a concentration of peracid or peroxide in these ranges. Into a 4-mL vial was placed 0.100 mL of 20 mM methyl p-tolyl sulfide (MTS) in acetonitrile, 0.300 mL of distilled and deionized water (dd) and 0.100 mL of sample solution (undiluted or diluted with dd water by a factor of up to 1:25 for analysis of peracid), or 0.100 mL of 20 mM MTS in acetonitrile and 0.390 mL of dd water were added to 0.010 mL of a 1:10 dilution of sample solution (for analysis of hydrogen peroxide). After a reaction time of 10 minutes (in the dark, with no stirring), 0.400 mL CH3CN and 0.100 mL of 40-mM triphenylphosphine (TPP) in CH3CN were added to start the second derivatization reaction for detection of peroxide. The solution was left standing in the dark for 30 min to complete the assay reaction. At the end of 30 minutes, 0.100 mL of 10 mM N,N-diethyl-m-toluamide (DEET, HPLC external standard) was added and the resulting solution analyzed by HPLC: Supelco Discovery C8 10-cm column with pre-column, 10-μL injection, UV detection at 225 nm, solvent A: acetonitrile, solvent B: deionized water, 1 mL/min gradient as follows: […]
Into a 4-mL glass vial with stir bar was added 1 mg protease (Table 6) in 0.050 mL of 50 mM sodium phosphate buffer (pH 6.5), 0.900 mL of an aqueous mixture containing triacetin (278 mM) in 50 mM phosphate buffer (pH 6.5), and 0.052 mL 30% hydrogen peroxide (500 mM final concentration). After stirring for 5 or 30 minutes at 22° C., a 0.250 mL sample was filtered using a 30,000 NMWL filter (Millipore UltraFree-MC) centrifuged for 2 minute at 12,000 RPM. A portion of the filtered reaction samples was diluted 1:10 with dd water and analyzed for hydrogen peroxide, and the remaining portion of the sample was directly analyzed for peracid using the HPLC assay method (Table 9).

CC(=O)OO [Commercially-Available Peracetic Acid, peracetic acid, reference compound]
Minimum Biocidal Concentration (MBC) ([1]; listed as commercial source of peracetic acid): > 2.3 ppm | blank-corrected mean OD ([1]; commercial PAA 1.15 ppm): 1.138 | mean replicate OD (450 nm) ([1]; commercial PAA 1.15 ppm): 1.410 | replicate OD (450 nm) ([1]; commercial PAA 1.15 ppm): 1.343 and 1.377 and 1.368 and 1.378 and 1.324 and 1.386 and 1.734 and 1.367 | blank-corrected mean OD ([1]; commercial PAA 2.3 ppm): 0.026 | mean replicate OD (450 nm) ([1]; commercial PAA 2.3 ppm): 0.298 | replicate OD (450 nm) ([1]; commercial PAA 2.3 ppm): 0.292 (2×) and 0.291 and 0.294 and 0.303 (2×) and 0.318 and 0.288 | blank-corrected mean OD ([1]; commercial PAA 4.7 ppm): 0.027 | mean replicate OD (450 nm) ([1]; commercial PAA 4.7 ppm): 0.298 | replicate OD (450 nm) ([1]; commercial PAA 4.7 ppm): 0.294 (2×) and 0.295 and 0.298 and 0.293 and 0.304 and 0.310 and 0.297 | blank-corrected mean OD ([1]; commercial PAA 9.4 ppm): 0.024 | mean replicate OD (450 nm) ([1]; commercial PAA 9.4 ppm): 0.295 | replicate OD (450 nm) ([1]; commercial PAA 9.4 ppm): 0.290 and 0.294 (2×) and 0.291 and 0.299 and 0.295 and 0.301 and 0.296 | blank-corrected mean OD ([1]; commercial PAA 18.75 ppm): 0.024 | mean replicate OD (450 nm) ([1]; commercial PAA 18.75 ppm): 0.295 | replicate OD (450 nm) ([1]; commercial PAA 18.75 ppm): 0.289 and 0.288 and 0.296 (2×) and 0.294 and 0.300 and 0.306 and 0.292

CC(=O)OO [peracetic acid]
Minimum Biocidal Concentration (MBC) ([1]; listed as PAA): > 2.4 ppm | MBC ([1]; Escherichia coli, ATCC11229, 10 min, read-out: Minimum Biocidal Concentration (MBC), E. coli ATCC 11229, 1.35×10^6 CFU/mL, 10 minutes at room temperature, XTT, six-log kill): 2.4 µg/mL (≈ 31.6 µM) | blank-corrected mean OD ([1]; PAA 1.2 ppm, H2O2 40.2 ppm): 0.203 | mean replicate OD (450 nm) ([1]; PAA 1.2 ppm, H2O2 40.2 ppm): 0.617 | replicate OD (450 nm) ([1]; PAA 1.2 ppm, H2O2 40.2 ppm): 0.674 and 0.635 and 0.658 and 0.625 and 0.639 and 0.520 and 0.496 and 0.692 | blank-corrected mean OD ([1]; PAA 2.4 ppm, H2O2 80.4 ppm): 0.007 | mean replicate OD (450 nm) ([1]; PAA 2.4 ppm, H2O2 80.4 ppm): 0.421 | replicate OD (450 nm) ([1]; PAA 2.4 ppm, H2O2 80.4 ppm): 0.400 and 0.397 and 0.403 and 0.401 and 0.409 and 0.407 and 0.543 and 0.406 | blank-corrected mean OD ([1]; PAA 4.8 ppm, H2O2 160.8 ppm): −0.005 | mean replicate OD (450 nm) ([1]; PAA 4.8 ppm, H2O2 160.8 ppm): 0.409 | replicate OD (450 nm) ([1]; PAA 4.8 ppm, H2O2 160.8 ppm): 0.393 and 0.388 and 0.399 and 0.398 and 0.404 and 0.401 and 0.471 and 0.418 | blank-corrected mean OD ([1]; PAA 9.6 ppm, H2O2 321.6 ppm): −0.009 | mean replicate OD (450 nm) ([1]; PAA 9.6 ppm, H2O2 321.6 ppm): 0.405 | replicate OD (450 nm) ([1]; PAA 9.6 ppm, H2O2 321.6 ppm): 0.398 and 0.392 and 0.395 and 0.404 and 0.409 and 0.394 and 0.422 and 0.427 | blank-corrected mean OD ([1]; PAA 19.15 ppm, H2O2 643.1 ppm): −0.029 | mean replicate OD (450 nm) ([1]; PAA 19.15 ppm, H2O2 643.1 ppm): 0.388 | replicate OD (450 nm) ([1]; PAA 19.15 ppm, H2O2 643.1 ppm): 0.383 and 0.379 and 0.387 and 0.381 and 0.382 (2×) and 0.403 (2×)

CC(=O)OCC(COC(C)=O)OC(C)=O [triacetin]
biocidal effect ([1]; highest concentration examined (5455 ppm)): no biocidal effect | blank-corrected mean OD ([1]; triacetin 341 ppm): 2.156 | mean replicate OD (450 nm) ([1]; triacetin 341 ppm): 2.571 | replicate OD (450 nm) ([1]; triacetin 341 ppm): 2.568 and 2.563 and 2.601 and 2.58 and 3.148 and 2.408 and 2.507 and 2.189 | blank-corrected mean OD ([1]; triacetin 682 ppm): 1.956 | mean replicate OD (450 nm) ([1]; triacetin 682 ppm): 2.371 | replicate OD (450 nm) ([1]; triacetin 682 ppm): 2.304 and 2.310 and 2.560 and 2.601 and 2.605 and 2.213 and 2.156 and 2.218 | blank-corrected mean OD ([1]; triacetin 1364 ppm): 1.978 | mean replicate OD (450 nm) ([1]; triacetin 1364 ppm): 2.393 | replicate OD (450 nm) ([1]; triacetin 1364 ppm): 2.140 and 2.266 and 2.485 and 2.632 and 2.823 and 2.337 and 2.265 and 2.198 | blank-corrected mean OD ([1]; triacetin 2728 ppm): 1.913 | mean replicate OD (450 nm) ([1]; triacetin 2728 ppm): 2.328 | replicate OD (450 nm) ([1]; triacetin 2728 ppm): 2.273 and 2.167 and 2.358 and 2.454 and 2.663 and 2.280 and 2.208 and 2.222 | blank-corrected mean OD ([1]; triacetin 5455 ppm): 1.835 | mean replicate OD (450 nm) ([1]; triacetin 5455 ppm): 2.250 | replicate OD (450 nm) ([1]; triacetin 5455 ppm): 2.229 and 2.124 and 2.263 and 2.407 and 2.539 and 2.210 and 2.136 and 2.091

Bromelain
diacetamide (250 mM) peracetic acid (ppm), 5 min [2]: 92 ppm | diacetamide (250 mM) peracetic acid (ppm), 30 min [2]: 130 ppm | triacetin (250 mM) peracetic acid (ppm), 5 min [3]: 83 ppm | triacetin (250 mM) peracetic acid (ppm), 30 min [3]: 59 ppm | acetamide (250 mM) peracetic acid (ppm), 5 min [4]: 57 ppm | acetamide (250 mM) peracetic acid (ppm), 30 min [4]: 63 ppm | diacetamide (250 mM) peracetic acid (ppm), 5 min [5]: 311 ppm | diacetamide (250 mM) peracetic acid (ppm), 30 min [5]: 202 ppm | acetamide (250 mM) peracetic acid (ppm), 5 min [6]: 108 ppm | acetamide (250 mM) peracetic acid (ppm), 30 min [6]: 112 ppm | triacetin (250 mM) peracetic acid (ppm), 5 min [7]: 161 ppm | triacetin (250 mM) peracetic acid (ppm), 30 min [7]: 170 ppm

Chymopapain: Chymopapain, papaya latex, Sigma C8526
diacetamide (250 mM) peracetic acid (ppm), 5 min [2]: 100 ppm | diacetamide (250 mM) peracetic acid (ppm), 30 min [2]: 131 ppm | triacetin (250 mM) peracetic acid (ppm), 5 min [3]: 72 ppm | triacetin (250 mM) peracetic acid (ppm), 30 min [3]: 57 ppm | acetamide (250 mM) peracetic acid (ppm), 5 min [4]: 66 ppm | acetamide (250 mM) peracetic acid (ppm), 30 min [4]: 65 ppm | diacetamide (250 mM) peracetic acid (ppm), 5 min [5]: 218 ppm | diacetamide (250 mM) peracetic acid (ppm), 30 min [5]: 170 ppm | acetamide (250 mM) peracetic acid (ppm), 5 min [6]: 94 ppm | acetamide (250 mM) peracetic acid (ppm), 30 min [6]: 12 ppm | triacetin (250 mM) peracetic acid (ppm), 5 min [7]: 69 ppm | triacetin (250 mM) peracetic acid (ppm), 30 min [7]: 167 ppm
